# According to ChEMBL document CHEMBL3507680, “University of Dundee, Gates Library screen for HepG2 cell viability”:
# Assay: Human HepG2 cell viability assay in 384 well format
# Type: toxicity, cell-based
# Parameters: dose 125 nL, time 70.5 hour; cytotoxicity at 70.5 h: concentration not given beside the values
# Settings: HepG2 cells, read-out: Inhibition
row,SMILES,cytotoxicity at 70.5 h
1,Cc1noc(C(C)N2CCN(c3ncnc4ccccc34)CC2)n1 (configuration not stated),-13.6%
2,Clc1snnc1CN1CCCC1Cn1cncn1 (configuration not stated),53.6%
3,Cc1cc(C(=O)N2CC[C@@H]3CN(S(C)(=O)=O)CCO[C@@H]3C2)c(C)o1,-5.13%
4,CCc1noc(CN(C)Cc2cc3ccc(Cl)cc3[nH]c2=O)n1,-5.21%
5,Cc1nccn1-c1ccc(CNC(=O)c2ccc[nH]2)cn1,-6.51%
6,CC(C)N1CCCC(C(=O)N2CCN(c3cccc(C(=O)O)c3)CC2)C1 (configuration not stated),23.2%
7,O=C(c1cnccn1)N1CCN2C[C@H](Oc3cccc(F)c3)C[C@H]2C1,-2.2%
8,CCc1nnc2n1CCN(C(=O)CCOc1cc(C)ccc1C)C2,-5.39%
9,O=C(NC1CC1)N1CC[C@H](OCC2CC2)[C@@H]1Cc1cccnc1,1.68%
10,CC(C1CCN(Cc2cnn(C)c2C2CC2)CC1)N1CCN(C)CC1 (configuration not stated),-3.33%
11,Cc1cccc(-c2cc(-c3c(C)nn(CCO)c3C)c(C#N)c(N)n2)c1,-11.4%
12,COCc1cc(C[C@@H]2CC[C@H](O)[C@@H](CN(C)C)O2)no1,-0.737%
13,CNc1ncc2c(n1)CN(c1cccc(OC)c1)C2=O,-13.9%
14,Cc1cc(CC(=O)N2CCCC2c2nc(C(C)C)no2)on1 (configuration not stated),5.26%
15,NC(=O)c1ccc(NC(=O)CCN2CCCC(N3CCCC3)C2)cc1 (configuration not stated),12.4%
16,NC(=O)C1(c2cnccn2)CCCN1Cc1ccc(Cl)cc1 (configuration not stated),-9.51%
17,N#Cc1nc(COc2ccc3c(c2)OCO3)oc1N1CCCC1,-26.5%
18,O=C(NCC(F)F)c1cnc(C2CCCN2)cn1 (configuration not stated),-3.12%
19,CC(C)NC(=O)C1CCN(c2snc3ccccc23)CC1,-9.65%
20,CN(CC1CCN(CCO)CC1)CC(O)c1ccc(F)c(F)c1 (configuration not stated),7.09%
21,c1cc(NC2CC3(CCN(Cc4cscn4)C3)C2)ncn1 (configuration not stated),-7.63%
22,CC(CO)(NC(=O)NCc1ccc(Br)s1)C1CC1 (configuration not stated),-8.92%
23,Cc1cc(Oc2ccccc2C)nc(C2CCCN2)n1 (configuration not stated),9.24%

row,SMILES,cytotoxicity at 70.5 h
1,CC(C)NC(=O)N1CCN(C(=O)C2CCOCC2)CC2(CNC(=O)C2)C1 (configuration not stated),-16%
2,Cc1cnccc1CN1CC[C@H](Oc2cccc(F)c2)[C@@](C)(O)C1,0.441%
3,CN(Cc1noc(C2CC2)n1)C1CCN(CCS(C)(=O)=O)C1 (configuration not stated),-3.36%
4,CCC(NCc1ccccc1Cl)c1ccccc1OCC(=O)NC (configuration not stated),-3.07%
5,O=C(NCC1CCOC1)c1cc(-c2ccc(Cl)cc2)n[nH]1 (configuration not stated),20.6%
6,CCn1cnnc1C1CCN(C(=O)COCCc2ccccc2)CC1,-3.71%
7,COc1cccc(CN2CCC3(CCN(C(=O)[C@H]4CCCO4)CC3)C2)c1,-4.99%
8,CN1CCOC(CNCC(=O)NCCc2ccc(F)cc2)C1 (configuration not stated),-3.15%
9,CS(=O)(=O)NC1CCN(C(=O)c2[nH]c3ccc(Cl)cc3c2Cl)CC1,31.7%
10,CCSCC(C)NCc1cn2ccccc2n1 (configuration not stated),-20.2%
11,CC(C)c1nnc2n1CCN(C(=O)c1ccc3c(c1)CCC3)C2,0.826%
12,Cc1ccc(NC2CCN(C(=O)CCc3ccccc3)CC2)nn1,-6.29%
13,Cc1cnn(CCNCc2ccc(OCC(N)=O)cc2)c1,-6.65%
14,O=C(CC1CCCC1)N1CCC(c2cc3ncccc3c(O)n2)CC1,-9.11%
15,CN(CCO)C[C@@H]1CN(Cc2ccccc2-c2ccccc2)C[C@@H]1CO,-2.36%
16,O=C1[C@H]2CN(CC3CC3)C[C@H]2CN1Cc1cccc(F)c1,-7.25%
17,COc1cccc(CNCc2nc3ccccc3c(=O)[nH]2)c1,1.76%
18,O=C(NCC1OCCc2cn(CC3CCOCC3)nc21)c1ccsc1 (configuration not stated),5%
19,COCC(=O)N1CC(c2ccnc(Nc3cc(C(F)(F)F)ccn3)n2)C1,10.3%
20,O=C([C@@H]1CC[C@@H]2[C@@H](CCN2CCOCc2ccccc2)O1)N1CCCC1,13%
21,Cc1ccc(C(O)CN2CCN(Cc3nccn3C)CC2)cc1C (configuration not stated),2%
22,C=C(C)CNC(=O)C1CCC(=O)N(C2CCCC2)C1 (configuration not stated),-2.49%
23,Cc1ccc(CN(CCN(C)C)Cc2c(C)nc3sccn23)o1,6.95%

row,SMILES,cytotoxicity at 70.5 h
1,CSc1ccccc1C(=O)NCCCN1CCc2ccccc2C1,-5.68%
2,O=C(c1ccncc1)N1CCC(c2nc(O)cc(-c3ccncc3)n2)C1 (configuration not stated),-12.6%
3,CN(CC1(CO)CCCC1)C(=O)c1cc(COc2ccccc2F)[nH]n1,-6.26%
4,CC1CCN(S(=O)(=O)N2CCC(Oc3cnccn3)CC2)CC1,-5.91%
5,CC1CN(C(=O)c2cnn(-c3ccccn3)c2C(C)C)CC(C)(C)O1 (configuration not stated),-4.17%
6,CN(C(=O)Cc1ccn(C)c1)C1CCCN(C2Cc3ccccc3C2)C1 (configuration not stated),1.52%
7,CCn1ncc2c1C(COCC1CC1)N(Cc1ccccn1)CC2 (configuration not stated),-1.07%
8,CC(CNC(=O)c1ccc(F)cc1Cl)N1CCCC1 (configuration not stated),-7.32%
9,CCCn1nc(-c2nc(COc3ccccc3)no2)ccc1=O,-7.31%
10,COCc1ncc(CN(Cc2ccco2)C(C)C(C)C)cn1 (configuration not stated),-15.5%
11,N#Cc1ccc(C(=O)N2CCc3c(COCC4CC4)cncc3C2)cc1,-5.21%
12,O=c1[nH]ncn1-c1cccc(C(F)(F)F)c1,1.41%
13,COc1cccc2c1OCC(CNC(=O)CN(C)C1CCCC1)C2 (configuration not stated),6.99%
14,O=C(NCC1(O)CCSCC1)c1nccc2ccccc12,13.5%
15,Cc1nn2c(N3CCC(O)CC3)cc(-c3ccccc3)nc2c1C,-3.29%
16,Cc1nccn1CCCn1cncc1-c1ccc2c(c1)CC(C)N2C (configuration not stated),3.68%
17,Cc1nccc(N2CCC(=O)N(CC3CC3)C(C(C)C)C2)n1 (configuration not stated),-1.5%
18,CCOc1cccnc1C(=O)N1CCCN(c2nc(C)cs2)CC1,-3.42%
19,CN1CCC(Cc2cnc3ccccc3c2)C1 (configuration not stated),1.19%
20,CCc1nc(C)cc(N2CCCC(C(=O)c3ccc(OC)cc3C)C2)n1 (configuration not stated),6.28%
21,CCc1cc(O)nc(C2CCCN2C(=O)COC)n1 (configuration not stated),-5.06%
22,O=C(c1cccnc1)N1CCCC(c2ncncc2-c2ccncc2)C1 (configuration not stated),-5.25%
23,c1cncc(CN2CCCC3(COCCN(c4cncnc4)C3)C2)c1 (configuration not stated),-6.01%

row,SMILES,cytotoxicity at 70.5 h
1,FC(F)(F)CCN(Cc1ccon1)C1CCC1,-7.34%
2,COC(=O)c1cccc(S(=O)(=O)NC(=O)COC2CCCCC2)c1,-3.15%
3,CC(=O)N[C@@H]1CN(C2CCN(c3cccc(Cl)c3)CC2)C[C@H]1C(C)C,-7.17%
4,Cc1ncsc1CN1C[C@H]2OCC[C@H]2[C@H](C(=O)NCC2CC2)C1,2.15%
5,CC[C@@H](C)[C@@H](N)C(=O)Nc1cccc(-c2cnc(N(C)C)nc2)c1,-4.42%
6,CCOc1ccc2oc(-c3cnn(C)c3C)c(O)c(=O)c2c1,-3.56%
7,Cc1cc(CN2CCC(c3cc(Cc4ccccc4)n[nH]3)CC2)[nH]n1,-16.6%
8,Cc1occc1C(=O)N1CCC2(CC1)NC(=O)CC2c1cnn(C)c1 (configuration not stated),-10.3%
9,CC(C)(C)CNCC1(O)CCCN(Cc2ccccc2F)C1=O (configuration not stated),0.716%
10,CN1CC(=O)N(c2cccc(F)c2)CC12CCN(Cc1cccnc1)C2 (configuration not stated),3.06%
11,Cc1cc(SCC(N)=O)nc(-c2cccc(F)c2)n1,-11.7%
12,Cc1ncc(CNC(=O)N(C)Cc2ccc([S+](C)[O-])cc2)s1 (configuration not stated),-4.15%
13,COCCN(Cc1ccncc1)C(=O)CCSCc1ccc(F)cc1,20%
14,Cc1ncccc1Oc1cncc(C2CCCN2Cc2cncn2C)n1 (configuration not stated),-2.83%
15,CC(C(=O)N1CCOCC1)n1nc(-c2cccs2)cc(N)c1=O (configuration not stated),2.02%
16,COc1ccccc1OCC(=O)NCC(O)(c1ccccc1)C1CC1 (configuration not stated),-3.14%
17,CC(C)Nc1ncnc2c1CCN(C(=O)c1ccc[nH]1)CC2,-9.63%
18,Cc1noc([C@@]23CCO[C@@H]2CCN(C(=O)c2cc(C)[nH]c2C)C3)n1,-2.6%
19,O=C(NC1CCCCC1)N1CCC(n2cc(-c3ccccn3)nn2)CC1,-6.7%
20,Cc1c(CC(=O)N2CCN(CC(F)(F)F)CC2)nnn1-c1ccccc1,-11.3%
21,COc1cc(C(=O)Nc2nc(C)no2)cc(OC)c1Br,27.4%
22,CCN1C[C@H]2C3(CCN(S(C)(=O)=O)CC3)CC[C@@]2(C(=O)N(C)C)C1,-9.68%
23,O=C(NC[C@H]1CCCC[C@H]1O)c1cccc2[nH]c(-c3ccco3)nc12,15.3%

row,SMILES,cytotoxicity at 70.5 h
1,CCS(=O)(=O)N1C[C@@H](O)[C@H](N2CCc3ccccc3C2)C1,-5.96%
2,O=C(C[S+]([O-])Cc1cccc(Cl)c1)NC1CCCC1 (configuration not stated),-3.67%
3,Cc1cccnc1NC(=O)c1ccc(-n2ncc(C#N)c2N)cc1,-4.45%
4,NC(=O)Cn1ccnc1C1CCCN(CCSc2ccccc2)C1 (configuration not stated),-12.6%
5,O=C(Cc1cccnc1)N1CCC(OCc2ccccc2)CC1,-11.4%
6,CC(=O)c1cccc(C(=O)N2C[C@@H](CN3CCCCCC3)[C@@H](CO)C2)c1,-5.31%
7,Cc1ccc(C(=O)NS(=O)(=O)c2ccccc2Cl)c(=O)[nH]1,9.73%
8,CCOc1cc(Cl)ccc1CNC(=O)N(C)CC(C)(C)O,-78.1%
9,Cc1cc(CN(C)C(=O)NC2CCCC2)no1,-7.06%
10,CC(CNC(=O)NCc1ccsc1)CC1(C)OCCO1 (configuration not stated),-8.79%
11,CN1CC(=O)c2sc(NCCc3ccccc3)nc2C1,30%
12,Cc1ccc(CC(=O)N2CCCC(c3cc(C)[nH]n3)C2)cn1 (configuration not stated),-7.57%
13,C[C@H]1C[C@@H]2CCN(C(=O)c3ccncn3)C[C@H]2O1,-0.838%
14,Cc1cc(N2CCC(CC(N)=O)CC2)nc(-c2ccncc2)n1,-6.56%
15,O=C(Nc1cnn(CCN2CCOCC2)c1)c1ccccc1Cl,0.235%
16,O=C(CCc1cc(O)no1)N1CCC(Cc2ccc(F)cc2)CC1,-12%
17,CCC(C)CNCC1(S(C)(=O)=O)CCOCC1 (configuration not stated),-1.98%
18,Cc1ccccc1-n1nc(C)c(CN(C)C(C)Cc2ccccn2)c1C (configuration not stated),0.642%
19,CC(NC(=O)c1sccc1C1CC1)c1ccc2c(c1)CC(=O)N2 (configuration not stated),-1.98%
20,Cn1cnc2c1C(COCC1CCOCC1)CN(C(=O)c1ccco1)C2 (configuration not stated),-8.23%
